Legend:
Type in all cases: cell-based
Phaeosphaeria nodorum = test: Plate medium fungicidal assay, wheat Septoria nodorum blotch P.n (Experimental Example 5)
Procedure: (§1) In this Experimental Example, the fungicidal effects of the inventive compounds on various phytopathogenic fungi for plants and hazardous microorganism for industrial materials were examined by the methods described below. Each inventive compound was dissolved in 2 ml of dimethyl sulfoxide. 0.6 ml of this solution was added to 60 nil of a PDA medium (potato dextrose agar medium) at about 60 degrees C., which was mixed thoroughly in a 100-ml conical flask, and poured into a dish, where it was solidified, thereby obtaining a plate medium containing the inventive compound at 50 mg/L and 5 mg/L. On the other hand, a subject microorganism previously cultured on a plate medium was cut out using a cork borer whose diameter was 4 mm, and inoculated to the test compound-containing plate medium described above. […] The growth degree of the microorganism on the test compound-containing plate medium thus observed was compared with the growth degree of the microorganism in the untreated group, and % mycelial growth inhibition was calculated by the following equation. R=100(dc−dt)/dc wherein R=% mycelial extension inhibition, dc=flora diameter in untreated plate, dt=flora diameter in treated plate. The results obtained as described above were evaluated as one of the 5 grades according to the following criteria. […] Wheat Septoria nodorum blotch (Phaeosphaeria nodorum) P.n

Ustilago nuda = test: Plate medium fungicidal assay, barley loose smut U.n (Experimental Example 5)
Procedure: as §1, with “Barley loose smut (Ustilago nuda) U.n” for “Wheat Septoria nodorum blotch (Phaeosphaeria nodorum) P.n”

Alternaria alternata = test: Plate medium fungicidal assay, Alternaria blotch A.m (Experimental Example 5)
Procedure: as §1, with “Alternaria” for “Wheat Septoria nodorum”, “(Alternaria alternata) A.m” for “(Phaeosphaeria nodorum) P.n”

Fusarium oxysporum = test: Plate medium fungicidal assay, cucumber fusarium wilt F.c (Experimental Example 5)
Procedure: as §1, with “Cucumber fusarium wilt (Fusarium oxysporum) F.c” for “Wheat Septoria nodorum blotch (Phaeosphaeria nodorum) P.n”

[1] = plate medium containing compound at 5 mg/L
[2] = plate medium containing compound at 50 mg/L

Row | SMILES | Growth inhibition grade, P.n (Phaeosphaeria nodorum; plate medium, 5 mg/L) | Growth inhibition grade, P.n (Phaeosphaeria nodorum; plate medium, 50 mg/L) | Growth inhibition grade, U.n (Ustilago nuda; plate medium, 5 mg/L) | Growth inhibition grade, U.n (Ustilago nuda; plate medium, 50 mg/L) | Growth inhibition grade, A.m (Alternaria alternata; plate medium, 5 mg/L) | Growth inhibition grade, A.m (Alternaria alternata; plate medium, 50 mg/L) | Growth inhibition grade, F.c (Fusarium oxysporum; plate medium, 5 mg/L) | Growth inhibition grade, F.c (Fusarium oxysporum; plate medium, 50 mg/L) | Growth inhibition grade, P.n (Phaeosphaeria nodorum; [1]) | Growth inhibition grade, P.n (Phaeosphaeria nodorum; [2]) | Growth inhibition grade, U.n (Ustilago nuda; [1]) | Growth inhibition grade, U.n (Ustilago nuda; [2]) | Growth inhibition grade, A.m (Alternaria alternata; [1]) | Growth inhibition grade, A.m (Alternaria alternata; [2]) | Growth inhibition grade, F.c (Fusarium oxysporum; [1]) | Growth inhibition grade, F.c (Fusarium oxysporum; [2])
1 | CC1(C)CCC(Cc2ccc(Cl)cc2)C1(O)Cn1ncnc1S (racemic) [compound (2)] | 3 (% Mycelial growth inhibition of less than 60 to 40% or higher) | 4 (% Mycerial growth inhibition of less than 80 to 60% or higher) | 1 (% Mycerial growth inhibition of less than 20%) | 3 (% Mycelial growth inhibition of less than 60 to 40% or higher) | 4 (% Mycerial growth inhibition of less than 80 to 60% or higher) | 4 (% Mycerial growth inhibition of less than 80 to 60% or higher) | 3 (% Mycelial growth inhibition of less than 60 to 40% or higher) | 4 (% Mycerial growth inhibition of less than 80 to 60% or higher) | – | – | – | – | – | – | – | –
2 | C[C@]1(CCl)CC[C@@H](Cc2ccccc2F)[C@]1(O)Cn1cncn1 (relative stereo) [Compound I-86] | – | – | – | – | – | – | – | – | 5 (% Mycerial growth inhibition of 80% or higher) | 5 (% Mycerial growth inhibition of 80% or higher) | 5 (% Mycerial growth inhibition of 80% or higher) | 5 (% Mycerial growth inhibition of 80% or higher) | 4 (% Mycerial growth inhibition of less than 80 to 60% or higher) | 5 (% Mycerial growth inhibition of 80% or higher) | 5 (% Mycerial growth inhibition of 80% or higher) | 5 (% Mycerial growth inhibition of 80% or higher)
3 | CC[C@]1(CCl)CC[C@@H](Cc2ccccc2)[C@]1(O)Cn1cncn1 (relative stereo) [Compound I-97] | – | – | – | – | – | – | – | – | 5 (% Mycerial growth inhibition of 80% or higher) | 5 (% Mycerial growth inhibition of 80% or higher) | 5 (% Mycerial growth inhibition of 80% or higher) | 5 (% Mycerial growth inhibition of 80% or higher) | 4 (% Mycerial growth inhibition of less than 80 to 60% or higher) | 5 (% Mycerial growth inhibition of 80% or higher) | 5 (% Mycerial growth inhibition of 80% or higher) | 5 (% Mycerial growth inhibition of 80% or higher)
4 | Cc1ccc(C[C@@H]2CC[C@](C)(CCl)[C@@]2(O)Cn2cncn2)cc1 (relative stereo) [Compound I-80] | – | – | – | – | – | – | – | – | 5 (% Mycerial growth inhibition of 80% or higher) | 5 (% Mycerial growth inhibition of 80% or higher) | 5 (% Mycerial growth inhibition of 80% or higher) | 5 (% Mycerial growth inhibition of 80% or higher) | 5 (% Mycerial growth inhibition of 80% or higher) | 5 (% Mycerial growth inhibition of 80% or higher) | 5 (% Mycerial growth inhibition of 80% or higher) | 5 (% Mycerial growth inhibition of 80% or higher)
5 | C[C@@]1(CCl)CC[C@@H](Cc2cccc(Cl)c2)[C@]1(O)Cn1cncn1 (relative stereo) [Compound I-174] | 5 (% Mycerial growth inhibition of 80% or higher) | 5 (% Mycerial growth inhibition of 80% or higher) | 4 (% Mycerial growth inhibition of less than 80 to 60% or higher) | 5 (% Mycerial growth inhibition of 80% or higher) | 5 (% Mycerial growth inhibition of 80% or higher) | 5 (% Mycerial growth inhibition of 80% or higher) | 5 (% Mycerial growth inhibition of 80% or higher) | 5 (% Mycerial growth inhibition of 80% or higher) | – | – | – | – | – | – | – | –

Source: patent US9145351B2, “Azole derivatives, methods for producing the same, intermediate thereof, agro-horticultural agents” (KUREHA CORPORATION, priority 2009, dated 2015)
